The text below walks through data of ChEMBL document CHEMBL5108063, “Discovery, Chemistry, and Preclinical Development of Pritelivir, a Novel Treatment Option for Acyclovir-Resistant Herpes Simplex Virus Infections” (J Med Chem, 2022).

Where only a bound is given, the exact number is not on record here.

Data set [1] relates to Human alphaherpesvirus 2. The experiment in a line: Antiviral activity against HSV-2 infected in Vero cells incubated for 5 days by fluorescence based microtiter plate reader assay. The conditions noted are these: Human alphaherpesvirus 2, Vero, 120 h. In kind it is functional, organism-based.
For data set [2], the system named is Human alphaherpesvirus 1. The experiment in a line: Antiviral activity against HSV-1 infected in Vero cells incubated for 5 days by fluorescence based microtiter plate reader assay. It counts as functional, organism-based. The conditions noted are these: Human alphaherpesvirus 1, Vero, 120 h.
Data set [3] in a line: Protein binding in dog plasma assessed as unbound fraction. It counts as ADME, cell-free, Canis lupus familiaris.
A short description of data set [4]: Oral bioavailability in human at 1 mg/kg. Conditions: in vivo. It counts as ADME, organism-based.
Data set [5] in a line: Protein binding in minipig plasma assessed as unbound fraction. It counts as ADME, cell-free, Sus scrofa domesticus. Conditions: pig.
Data set [6] can be described thus: Half life in monkey at 1 mg/kg, po. In kind it is ADME, organism-based, Macaca mulatta. The conditions noted are these: rhesus monkey, in vivo.
Data set [7] concerns Human alphaherpesvirus 2. The experiment in a line: Antiviral activity against HSV-2 infected in po dosed BALB/c mouse administered twice on infection day and three times daily from day 1 to 4 post infection. It counts as functional. The conditions noted are these: Human alphaherpesvirus 2, 24 h.
Data set [8] deals with Human alphaherpesvirus 1. As to the kind of experiment: Antiviral activity against HSV-1 McKrae infected in BALB/c mouse assessed as reduction in viral load at 50 mg/kg, po infected with virus for 35 days prior to heat stress reactivation followed by compound treatment immediately and at 12 hrs post reactivation measured after 24 hrs post reactivation. In kind it is functional. Details: scale not given: the % may be the effect or the level left.

Data set [9] can be described thus: AUC in human at 1 mg/kg, po. In kind it is ADME, organism-based. Set-up: dose 1 mg/kg, route po. The conditions noted are these: in vivo.
The nature of data set [10]: Protein binding in human plasma assessed as unbound fraction. It counts as ADME, cell-free.
Data set [11] is described as follows: Oral bioavailability in dog at 1 mg/kg. In kind it is ADME, organism-based, Canis lupus familiaris. Conditions: in vivo.
The nature of data set [12]: Half life in rat at 1 mg/kg, po. It counts as ADME, organism-based. The conditions noted are these: in vivo.
Data set [13] in a line: AUC in dog at 1 mg/kg, po. In kind it is ADME, organism-based, Canis lupus familiaris. Details: dose 1 mg/kg, route po. The conditions noted are these: in vivo.
Data set [14] in a line: Protein binding in guinea pig plasma assessed as unbound fraction. It counts as ADME, cell-free, Cavia porcellus.
Data set [15] addresses Carbonic anhydrase 2 (Homo sapiens, UniProt P00918). The experiment in a line: Inhibition of carbonic anhydrase 2 (unknown origin) by CO2 hydration assay.
The nature of data set [16]: AUC in rat at 1 mg/kg, po. In kind it is ADME, organism-based. Set-up: dose 1 mg/kg, route po. Conditions: in vivo.
Data set [17] is described as follows: Oral bioavailability in human at 400 mg administered as 1 hr intravenous infusion. In kind it is ADME, organism-based. Conditions: in vivo.
A short description of data set [18]: Protein binding in mouse plasma assessed as unbound fraction. It counts as ADME, cell-free.
The target in data set [19] is Voltage-gated inwardly rectifying potassium channel KCNH2 (Homo sapiens, UniProt Q12809). The experiment in a line: Inhibition of human ERG expressed in HEK293 cells by whole cell patch clamp assay. It counts as toxicity, cell-based. On the technique in general: Patch clamp records ionic current or voltage across a cell membrane.
Data set [20] is described as follows: Terminal elimination half life in human at […]. It counts as ADME, organism-based. Conditions: in vivo, read-out: beta t1/2 (converted).
Data set [21] relates to Human alphaherpesvirus 1. As to the kind of experiment: Antiviral activity against HSV-1 infected in po dosed BALB/c mouse administered twice on infection day and three times daily from day 1 to 4 post infection. The conditions noted are these: Human alphaherpesvirus 1, 96 h, time 4 day. In kind it is functional.
Data set [22] is described as follows: AUC in monkey at 1 mg/kg, po. It counts as ADME, organism-based, Macaca mulatta. Details: dose 1 mg/kg, route po. Conditions: rhesus monkey, in vivo.
Data set [23] in a line: Half life in human at 1 mg/kg, po. It counts as ADME, organism-based. The conditions noted are these: in vivo.
A short description of data set [24]: Oral bioavailability in rat at 1 mg/kg. The conditions noted are these: in vivo. In kind it is ADME, organism-based.
Data set [25] can be described thus: Protein binding in monkey plasma assessed as unbound fraction. It counts as ADME, cell-free, Macaca mulatta. The conditions noted are these: rhesus monkey.
A short description of data set [26]: Half life in dog at 1 mg/kg, po. Conditions: in vivo. In kind it is ADME, organism-based, Canis lupus familiaris.
Data set [27] in a line: Protein binding in rat plasma assessed as unbound fraction. It counts as ADME, cell-free.
Data set [28] is described as follows: Protein binding in rabbit plasma assessed as unbound fraction. In kind it is ADME, cell-free, Oryctolagus cuniculus.
Data set [29] can be described thus: Oral bioavailability in monkey at 1 mg/kg. It counts as ADME, organism-based, Macaca mulatta. The conditions noted are these: rhesus monkey, in vivo.
Data set [30] can be described thus: Octanol/water partition coefficient, log P of the compound. In kind it is physicochemical.
A short description of data set [31]: Oral bioavailability in human at 350 mg administered as 1 hr intravenous infusion once a week and measured upto 24 hrs. It counts as ADME, organism-based. The conditions noted are these: in vivo.
Data set [32] is described as follows: Oral bioavailability in rat. It counts as ADME, organism-based. The conditions noted are these: in vivo.
Data set [33] is described as follows: Oral bioavailability in dog. In kind it is ADME, organism-based, Canis lupus familiaris. The conditions noted are these: in vivo.
The nature of data set [34]: Oral bioavailability in monkey. In kind it is ADME, organism-based, Macaca mulatta. The conditions noted are these: rhesus monkey, in vivo.

Voltage-gated inwardly rectifying potassium channel KCNH2, sequence (Q12809 whole entry): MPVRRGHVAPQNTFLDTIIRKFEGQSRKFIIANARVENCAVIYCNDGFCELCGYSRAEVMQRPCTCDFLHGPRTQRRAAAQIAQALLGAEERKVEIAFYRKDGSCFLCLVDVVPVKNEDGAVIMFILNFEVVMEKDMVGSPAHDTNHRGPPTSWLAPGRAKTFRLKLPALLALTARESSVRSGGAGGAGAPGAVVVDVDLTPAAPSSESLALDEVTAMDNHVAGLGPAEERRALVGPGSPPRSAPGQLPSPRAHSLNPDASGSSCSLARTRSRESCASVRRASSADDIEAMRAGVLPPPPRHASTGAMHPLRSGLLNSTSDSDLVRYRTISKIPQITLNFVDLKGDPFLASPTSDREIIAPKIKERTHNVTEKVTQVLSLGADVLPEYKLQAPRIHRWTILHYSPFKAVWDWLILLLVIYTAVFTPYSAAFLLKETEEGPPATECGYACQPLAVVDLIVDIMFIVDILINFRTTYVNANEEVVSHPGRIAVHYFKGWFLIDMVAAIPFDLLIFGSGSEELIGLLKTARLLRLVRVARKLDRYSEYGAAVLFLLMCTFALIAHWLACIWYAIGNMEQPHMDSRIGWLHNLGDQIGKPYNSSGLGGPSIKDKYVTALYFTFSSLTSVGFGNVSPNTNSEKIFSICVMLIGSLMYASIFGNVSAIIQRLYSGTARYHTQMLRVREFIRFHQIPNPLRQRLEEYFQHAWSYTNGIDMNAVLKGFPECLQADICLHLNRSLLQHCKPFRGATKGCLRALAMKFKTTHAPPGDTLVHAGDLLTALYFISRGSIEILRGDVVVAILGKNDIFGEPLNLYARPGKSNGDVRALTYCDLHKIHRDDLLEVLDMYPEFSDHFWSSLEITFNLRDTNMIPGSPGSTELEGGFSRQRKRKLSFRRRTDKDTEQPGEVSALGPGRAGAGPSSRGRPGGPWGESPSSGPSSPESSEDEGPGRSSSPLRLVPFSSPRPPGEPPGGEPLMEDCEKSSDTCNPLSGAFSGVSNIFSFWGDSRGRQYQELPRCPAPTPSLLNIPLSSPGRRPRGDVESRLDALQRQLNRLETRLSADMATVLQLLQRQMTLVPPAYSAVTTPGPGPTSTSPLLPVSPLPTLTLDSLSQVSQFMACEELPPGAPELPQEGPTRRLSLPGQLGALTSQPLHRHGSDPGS

Usually IC50 stands for the midpoint of a concentration-inhibition curve. Consider `Cc1nc(N(C)C(=O)Cc2ccc(-c3ccccc3)cc2)sc1S(=O)(=O)NCCO`, for which the 50% inhibitory concentration (IC50) in [1] worked out at 5 nM; in [2], 0.75 nM.
Usually ED50 stands for the midpoint of the dose-response relation. The AUC is concentration integrated over time. In general, bioavailability refers to the share of a dose that reaches the circulation, judged against a reference dose that is usually intravenous. As to `Cc1nc(N(C)C(=O)Cc2ccc(-c3ccccn3)cc2)sc1S(N)(=O)=O`, the Fu in data set [3] is recorded as 1%; in [5] it was 2.5%; in data set [10], 2.7%; in data set [14], 5.9%; in [18] it was 0.97%; in data set [25], 0.75%. The Fu in data set [27] was found to be 1.2%; in [28], 3.4%. For the same molecule, the IC50 in [1] stood at 16 nM; in data set [2], 20 nM; in data set [15], 2000 nM; in data set [19] it was 160000 nM. The F was determined as 73% in data set [4] and 63% in data set [29]. The t1/2 in [6] is 30 h; in [12] it was 5 h; in [26], 22 h. The ED50 in data set [7] amounted to 16 mg/kg; in data set [21] it was 22 mg/kg. Moreover, the Activity in data set [8] came out at 32%. The exposure (AUC) in [9] was 90800 ng·h/mL; in data set [13], 54200 ng·h/mL; in data set [16] it was 12900 ng·h/mL; in [22], 39500 ng·h/mL. Further, the values for the bioavailability in data set [11], in data set [17] and in data set [24] were 83%, 60% and 65%, respectively. For the same molecule, the half-life in data set [20] and in [23] was 60 h in each case.
In the case of `CNS(=O)(=O)c1sc(N(C)C(=O)Cc2ccc(-c3ccccc3)cc2)nc1C`, the concentration for half-maximal inhibition (IC50) in data set [1] was 50 nM; in data set [2], 0.5 nM.
In the same order, the values of `Cc1nc(N(C)C(=O)Cc2ccc(-n3cccn3)cc2)sc1S(N)(=O)=O` are 100 nM and 10 nM.
In the same order, the values of `Cc1nc(N(C)C(=O)Cc2ccc(-c3ccccc3)cc2)sc1S(N)(=O)=O` are 5 nM and less than 0.05 nM.
The corresponding values for `CNS(=O)(=O)c1ccc2c(c1)N(C(=O)Nc1ccc(N3CCCC3)cc1)C(C)C2` (centres undefined) are 40 nM and 25 nM.
In the case of `Cc1ccc(F)cc1-c1ccc(CC(=O)N(C)c2nc(C)c(S(N)(=O)=O)s2)cc1`, the IC50 in data set [1] was determined as 125 nM; in data set [2] it was 100 nM.
The corresponding values for `CC1Cc2ccc(S(N)(=O)=O)cc2N1C(=O)Nc1ccc(-c2ccccc2)cc1` (centres undefined) are 60 nM and 10 nM.
`Cc1nc(N(C)C(=O)Cc2ccc(-c3ccccc3)cc2)sc1S(=O)(=O)NCCN` displayed an IC50 in data set [2] of 100 nM.
In the case of `COc1ccccc1-c1ccc(CC(=O)N(C)c2nc(C)c(S(N)(=O)=O)s2)cc1`, the IC50 in data set [1] stood at 0.05 nM; in [2] it was 2 nM.
As for `Cc1nc(N(C)C(=O)Cc2ccc(-c3c(C)noc3C)cc2)sc1S(N)(=O)=O`, the IC50 in data set [2] was greater than 5 nM.
On to `CC1Cc2ccc(S(=O)(=O)NC3CC3)cc2N1C(=O)Nc1ccc(-c2ccccc2)cc1` (centres undefined), for which the figures for the IC50 in [1] and in [2] were 150 nM and 50 nM, respectively.
In the case of `Cc1nc(NC(=O)Nc2ccc(N3CCOCC3)cc2)sc1S(=O)(=O)N(C)C`, the IC50 in data set [1] was 4000 nM; in data set [2], 2000 nM.
In the same order, the values of `Cc1nc(N(C)C(=O)Nc2ccc(-c3ccccc3)cc2)sc1S(=O)(=O)NC1CC1` are 100 nM and 20 nM.
The term logP denotes a log measure of how a compound divides between an organic and an aqueous phase. In data set [30], `CS(=O)(=O)O.Cc1nc(N(C)C(=O)Cc2ccc(-c3ccccn3)cc2)sc1S(N)(=O)=O.O` came in with a logP of 1.745.
Regarding `Cc1nc(N(C)C(=O)Cc2ccc(-c3ccccc3)cc2)sc1S(=O)(=O)NCC(F)(F)F`, the 50% inhibitory concentration (IC50) in data set [1] was found to be 150 nM; in [2] it was 50 nM.
As for `COc1ccc(F)cc1-c1ccc(CC(=O)N(C)c2nc(C)c(S(N)(=O)=O)s2)cc1`, the IC50 in [1] was less than 0.05 nM; in data set [2], 0.25 nM.
In the same order, the values of `Cc1nc(C(C)C(=O)Nc2ccc(-c3ccccc3)cc2)sc1S(N)(=O)=O` (centres undefined) are 10 nM and 50 nM.
On to `Cc1nc(N(C)C(=O)Cc2ccc(-c3cccnc3)cc2)sc1S(N)(=O)=O`, for which the IC50 in data set [1] and in data set [2] was 5 nM in each case.
Take `Cc1nc(N(C)C(=O)Nc2ccc(N3CCOCC3)cc2)sc1S(=O)(=O)N(C)C`: the concentration for half-maximal inhibition (IC50) in [1] was 1500 nM; in data set [2], 750 nM.
Turning to `CNS(=O)(=O)c1sc(N(C)C(=O)Nc2ccc(-c3ccccc3)cc2)nc1C`, the half-maximal inhibitory concentration (IC50) in data set [1] was found to be 5 nM; in data set [2] it was 1 nM.
Consider `Nc1nc2c(ncn2COCCO)c(=O)[nH]1` [ACYCLOVIR], for which the bioavailability in data set [31] is 54%; in data set [32], 65%; in data set [33], 83%; in data set [34], 63%. In data set [7], this molecule had an ED50 of 0.5 mg/kg.
`Nc1nc2c(ncn2CCC(CO)CO)c(=O)[nH]1` [PENCICLOVIR] displayed a bioavailability in data set [17] of 60%.
For `CC(C)[C@H](N)C(=O)OCCOCn1cnc2c(=O)nc(N)[nH]c21` [VALACYCLOVIR], the median effective dose (ED50) was determined as 14 mg/kg in [7] and 17 mg/kg in data set [21].
